Columns and labels:
[1] = system: C57BL6Ksdb/db obese diabetic mouse dermal wounds; details: topical; Livant et al. (2000) J. Clin. Invest. 105: 1537-1545; cited from earlier work
[2] = system: C57BL6Ksdb/db obese diabetic mouse dermal wounds; assay: Dermal wound healing in obese diabetic mice, topical application; type: in vivo; details: FIG. 7
From the text: X axis, days since wounding. Y axis, wound area, relative to the initial wound area (13 to 19 mm^2). Db/db: healing-impaired, homozygous db/db, obese diabetic mice; db/+: normally healing, heterozygous db/+, non-diabetic littermates. Mean wound areas are shown.
Peptides are further evaluated for their ability to stimulate the diabetic wound healing. The peptides are topically applied to duplicate dermal wounds in healing-impaired obese diabetic mice (Greenhalgh et al., (1990) Am. J. Pathol. 136: 1235-1246), according to published protocols (Livant et al., (2000) J. Clin. Invest. 105: 1537-1545). Wound closure times are determined in both treated and untreated mice. To confirm the importance of the cysteine switch residue, some wounds are treated with the C to S substituted peptides. To quantitate the extent of reepithelialization for several days wounding, wounds are excised, sectioned, stained, and examined microscopically. To evaluate the provisional matrix for indications of wound contraction and angiogenesis, the presence of activated fibroblasts, collagenous fibers, microvasculature, and wound macrophages is assessed in sectioned and stained wounds for several days following wounding as described (Livant et al., (2000) J. Clin. Invest. 105: 1537-1545). These assays are performed using peptides derived from MMP 1, MMP 2, MMP 7, and MMP 9.
Each treatment group consisted of 10 mice with duplicate, dermal wounds of 12.5 to 16.5 mm^2 made in the shoulder area. Complete methods were as described (Livant et al., (2000) J. Clin. Invest. 105: 1537-1545). Treated animal were treated with 10 μg switch (PRC) sequence from MMP2 (Ac-PRCGNPDVANY-NH2) (SEQ ID NO:3). Wound areas were measured by integration of digital images.

[3] = system: human microvascular cells; assay: SU-ECM in vitro invasion assay, human microvascular cells; type: cell-based; details: peptide 2, 6, 20, 60 ng/ml; 5% FCS; 4 hours on SU-ECM; FIG. 1
From the text: (§1) About 1×10^5 human microvascular cells, neonatal fibroblasts, or undifferentiated human keratinocytes were suspended in medium containing 5% fetal calf serum (FCS), mixed with varying concentrations of the MMP 7 switch peptide, Ac-PRCGVPDVAEY-NH2 (Gaire et al., (1994) J. Biol. Chem. 269: 2032-2040), function-blocking anti human MMP 1 monoclonal antibody (Birkedal-Hansen et al., (1988) Biochemistry 27; 6751-6758), or total human IgG, and placed on the surfaces of SU-ECM in vitro invasion substrates. SU-ECM invasion substrates are made as described from sea urchin embryos, and contain a blastocoelic cavity enclosed by an intact basement membrane and associated extracellular matrix (Livant et al., (1995) Cancer Research 55, 5085-5093). After 4 hours of incubation (the time necessary to observe maximal invasion percentages), the invasion percentage in each assay was determined by microscopic examination of the SU-ECM invasion substrates and their associated cells at 400-fold magnification. Invasion percentages are the ratios of the numbers of cells located on the internal surfaces of SU-ECM to the total numbers of cells in contact with either the internal or the external surfaces of SU-ECM, and multiplied by 100.
(§2) Cell culture and SU-ECM invasion assays. […]

[4] = system: human neonatal fibroblasts; assay: SU-ECM in vitro invasion assay, human neonatal fibroblasts; type: cell-based; details: peptide 2, 6, 20, 60 ng/ml; 5% FCS; 4 hours on SU-ECM; FIG. 3
From the text: as §1, §2

[5] = system: undifferentiated human keratinocytes; assay: SU-ECM in vitro invasion assay, human keratinocytes; type: cell-based; details: peptide 2, 6, 20, 60 ng/ml; 5% FCS; 4 hours on SU-ECM; FIG. 5
From the text: as §1, §2

[6] = one topical treatment with 10 μg just after wounding

Ac-PHSRN-NH2 (listed as Homo sapiens)
stimulation of dermal wound healing in obese diabetic C57BL6Ksdb/db mice [1]: potent topical agent for stimulating dermal wound healing

Ac-PRCGNPDVANY-NH2 (listed as Homo sapiens) [PRC peptide]
decrease of the time required for closure of all db/db wounds, relative to untreated db/db mice [2, 6]: 50% | rapidity of closure of treated db/db wounds compared with db/+ non-diabetic mice [2, 6]: as rapid as that of db/+ non-diabetic mice | enhancement of db/db wound healing (wound area relative to the initial wound area) ([2]; single topical application): enhancement

Ac-PRCGVPDVAEY-NH2 (listed as Homo sapiens) [MMP 7 switch peptide, MMP 7 prodomain cysteine switch peptide]
induction of human microvascular cell invasion (percent of cells invaded) [3]: induces dose-dependent invasion | induction of human neonatal fibroblast invasion (percent of fibroblasts invaded) [4]: induces dose-dependent invasion | induction of human keratinocyte invasion (percent of keratinocytes invaded) [5]: induces dose-dependent invasion

Source: US7320783B2, “Methods and compositions for the enhancement of wound healing” (The Regents of the University of Michigan, priority 2002, dated 2008)
